The source of these data is patent US11572532B2, “Antimicrobial composition” (The Procter & Gamble Company, priority 2019, dated 2023).

Structures can show the parent of a compound that is named as a salt.

One data set relates to Enterobacter aerogenes. Kind of data set: Minimum Biocidal Concentration (MBC) in suspension. The data set is classed as cell-based. To be noted: active in 0.5% MEA + 1.5% TEA alkaline composition, no horse serum, contact time 6 minutes; for MBC: Klebsiella aerogenes, 0.1 h, read-out: MBC (ppm) E. aerogenes. On the procedure: (§1) B) Antibacterial Efficacy (Minimum Biocidal Concentration in Suspension):
(§2) The antimicrobial efficacy of the antimicrobial agent in the composition is determined by measuring its Minimum Biocidal Concentration (MBC). The MBC is defined as the lowest absolute concentration of the particular antimicrobial active which provides complete kill (zero bacterial growth).
(§3) The antimicrobial agent was added to the composition at a level of 1000 ppm, or 500 ppm, or 200 ppm, or 100 ppm or 50 ppm, depending on what the Minimum Biocidal Concentration (MBC) is. 200 μL of the antimicrobial hard surface cleaning composition was dosed into one well of row A of a 96 well microtiter plate. Each subsequent well (rows B to G) were dosed with 100 μL of the same hard surface cleaning composition, without the addition of the antimicrobial agent. 100 μL of the antimicrobial hard surface cleaning composition was transferred from row A to row B and mixed. 100 μL of the composition was then transferred from row B to row C and mixed, and the process repeated to row G. As such, the concentration of the antimicrobial agent underwent two-fold dilution in adjacent wells, while the concentration of the other actives in the hard surface cleaning composition remained constant across all the wells in the same column.
(§4) 10 μL of the 10^8CFU/ml bacteria suspension in saline was added to wells A to F of the microtiter plate with row G kept as a nil bacteria control. The final volume in each well was 110 μL, except for row G which comprised 100 μL of the hard surface cleaning composition and no bacteria suspension. Bacterial inoculation to each column was staggered by 30 seconds to allow for equal incubation times in all wells so that the contact time between the bacteria and the antimicrobial active for all samples was 6 mins. After this contact time, 10 μL of each test solution was transferred to 90 μL of neutralizer solution (Modified Letheen Broth +1.5% Polysorbate 80, supplied by BioMérieux) to stop the antimicrobial action of the antimicrobial active matching the stagger of the inoculation. 2 μL of this solution was plated onto a TSA plate matching the stagger of the inoculation so that all samples are exposed to the neutralizer for the same period of time. The plate was incubated at 32.5° C. for 48 h. MBC concentration is taken as the lowest concentration of the antimicrobial active at which no visible colony growth is observed on the TSA plate.

Data set [1] relates to Staphylococcus aureus (S.aureus—ATCC #6538). The data set is described as follows: Minimum Biocidal Concentration (MBC) in suspension. To be noted: active in 0.5% MEA + 1.5% TEA alkaline composition, no horse serum, contact time 6 minutes; for MBC: Staphylococcus aureus, ATCC6538, 0.1 h, read-out: MBC (ppm) S. aureus. The format is cell-based. The procedure:
as §1, §2, §3, §4

Data set [2] in a line: pH measurement on the neat composition. The data set is classed as physicochemical. To be noted: composition of 0.5% MEA + 1.5% TEA with 50 ppm of the active; 25° C. The procedure:
The pH is measured on the neat composition, at 25° C., using a pH meter with compatible gel-filled pH probe (such as Sartarius PT-10P meter with Toledo probe part number 52 000 100), calibrated according to the instruction manual.

The term MBC denotes the lowest tested concentration that kills the bacteria rather than only halting them.

As for `CCCCCCCCN=c1ccn(CCCCCCCCCCn2ccc(=NCCCCCCCC)cc2)cc1` [Bispyridinium alkane, octenidine dihydrochloride], the MBC in the data set with Enterobacter aerogenes was 12.5 µg/mL; in data set [1], 3.13 µg/mL. Further, in data set [2], the pH is 11.4.
For `[H]/N=C(\N/C(=N/[H])NCCCCCCNC(=N)NC(=N)Nc1ccc(Cl)cc1)Nc1ccc(Cl)cc1` [Chlorhexidine] the same measures were 50 µg/mL, 50 µg/mL and 11.2.
For `CCCCCCCCCCCCN(CCCN)CCCN` [N-(3-Aminopropyl)-N-dodecylpropane-1,3-diamine] the same measures were 50 µg/mL, 12.5 µg/mL and 11.5.
As to “N-alkyl dimethyl benzyl ammonium chloride”, in the data set on Enterobacter aerogenes, the “MBC (ppm) E. aerogenes” value came out at 12.5 ppm. Moreover, the “MBC (ppm) S. aureus” value in data set [1] is on record as 12.5 ppm. Moreover, in data set [2], the pH turned out to be 11.4.
